Where two headings read alike, the source gives them in different places.
Columns and labels:
Assay in all cases: biochemical
Recombinant human MMP-13 = biological target: T1, Recombinant human MMP-13 (Homo sapiens, UniProt P45452); details: fluorogenic MCA-peptide substrate, pH 7.5, room temperature; read-out: MMP-13 IC50
T1 construct: made in house; host or cells: baculovirus / insect cells
Outline: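 APMA-activated MMP (proenzyme purified on heparin agarose and chelating zinc columns) incubated at room temperature with 4 uM fluorogenic MCA-ProLeuGlyLeuDpaAlaArgNH2 substrate. Inhibition read as reduced fluorescence versus inhibitor concentration relative to a DMSO control, giving IC50.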

Recombinant human MMP-1 = biological target: T2, Recombinant human MMP-1 (Homo sapiens, UniProt P03956); details: fluorogenic MCA-peptide substrate, pH 7.5, room temperature
T2 construct: made in house; host or cells: transfected HT-1080 cells
T2 sequence (P03956 100-469): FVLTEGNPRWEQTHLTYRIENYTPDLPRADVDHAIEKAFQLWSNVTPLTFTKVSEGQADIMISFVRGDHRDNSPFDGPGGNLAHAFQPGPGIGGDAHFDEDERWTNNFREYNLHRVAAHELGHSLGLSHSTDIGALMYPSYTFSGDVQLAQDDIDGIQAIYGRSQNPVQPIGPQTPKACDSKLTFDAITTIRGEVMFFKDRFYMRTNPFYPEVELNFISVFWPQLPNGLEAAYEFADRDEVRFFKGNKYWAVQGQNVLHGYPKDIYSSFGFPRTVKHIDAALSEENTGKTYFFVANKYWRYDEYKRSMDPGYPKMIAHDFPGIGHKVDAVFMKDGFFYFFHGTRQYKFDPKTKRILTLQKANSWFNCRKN
Description: Recombinant human MMP-1, MMP-2, MMP-9, MMP-13, and were used in this assay. These enzymes were prepared in the Assignee's es following usual laboratory procedures. Specifics for preparing and e enzymes can be found in the scientific literature describing these See, e.g., Enzyme Nomenclature (Academic Press, San Diego, Calif., d the citations therein).
The MMP-1 was obtained from MMP-1 expressing transfected HT-1080 cells provided by Dr. Harold Welgus of Washington University in St. Louis, Mo. The MMP-1 was activated using 4-aminophenylmercuric acetate (APMA), and then purified over a hydroxamic acid column.
The enzyme substrate was a methoxycoumarin-containing polypeptide having the following sequence:
MCA-ProLeuGlyLeuDpaAlaArgNH2
Here, “MCA” is methoxycoumarin and “Dpa” is 3-(2,4-dinitrophenyl)-L-2,3-diaminopropionyl alanine.
These solutions were then compared to a control (which contained equal amount of DMSO/buffer solution, but no hydroxamate compound) using Microfluor™ White Plates (Dynatech, Chantilly, Va.). Specifically, The MMPs were activated with APMA or trypsin. […] The control likewise was incubated at room temperature in separate plates with the MMP and 4 uM of the MMP substrate. […] Inhibition was measured as a reduction in fluorescent intensity as a function of inhibitor concentration using a Perkin Elmer (Norwalk, Conn.) L550 plate reader. The IC50's were then calculated from these measurements.

Recombinant human MMP-2 = biological target: T3, Recombinant human MMP-2 (Homo sapiens, UniProt P08253); details: fluorogenic MCA-peptide substrate, pH 7.5, room temperature
T3 construct: made in house
T3 sequence (P08253 110-660): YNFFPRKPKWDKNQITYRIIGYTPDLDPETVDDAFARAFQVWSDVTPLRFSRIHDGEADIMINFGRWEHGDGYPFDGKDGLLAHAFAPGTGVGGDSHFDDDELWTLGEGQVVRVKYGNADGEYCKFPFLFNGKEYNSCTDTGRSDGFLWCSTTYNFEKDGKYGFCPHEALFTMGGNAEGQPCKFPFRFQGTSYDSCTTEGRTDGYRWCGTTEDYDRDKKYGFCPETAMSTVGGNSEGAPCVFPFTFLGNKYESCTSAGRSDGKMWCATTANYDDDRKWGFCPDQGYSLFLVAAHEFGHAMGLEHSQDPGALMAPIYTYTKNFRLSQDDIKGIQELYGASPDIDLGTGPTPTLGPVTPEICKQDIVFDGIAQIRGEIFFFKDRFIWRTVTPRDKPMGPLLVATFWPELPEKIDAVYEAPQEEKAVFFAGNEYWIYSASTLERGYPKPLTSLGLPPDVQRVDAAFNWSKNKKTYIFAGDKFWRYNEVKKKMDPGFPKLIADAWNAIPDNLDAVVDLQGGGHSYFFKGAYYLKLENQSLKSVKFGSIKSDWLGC
Outline: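 Activated (APMA or trypsin) recombinant human MMP-2, from transfected expressing cells, incubated at room temperature with 4 uM fluorogenic substrate MCA-Pro-Leu-Gly-Leu-Dpa-Ala-Arg-NH2 and hydroxamate inhibitor.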

SMILES	IC50 (Recombinant human MMP-13) [nM]	IC50 (Recombinant human MMP-1) [nM]	IC50 (Recombinant human MMP-2; MMP-2 IC50(nM)) [nM]	IC50 (Recombinant human MMP-2; read-out: MMP-2 IC50) [nM]
CC(=O)N1CCN(C(=O)C2CCN(c3ccc(S(=O)(=O)C4(C(=O)NO)CCOCC4)cc3)CC2)CC1 [Example 8]	50	> 10000	2500	
CCc1ccc(C(=O)C2CCN(c3ccc(S(=O)(=O)C4(C(=O)NO)CCN(S(C)(=O)=O)CC4)cc3)CC2)cc1 [Example 220]	1.7	> 10000		290
COCCN1CCC(C(=O)NO)(S(=O)(=O)c2ccc(N3CCC(C(=O)c4ccc(Cl)c(C)c4)CC3)cc2)CC1 [Example 211]	1.2	> 10000		122
CCOC(=O)CN1CCN(C(=O)C2CCN(c3ccc(S(=O)(=O)C4(C(=O)NO)CCOCC4)cc3)CC2)CC1 [Example 11]	37	> 10000		2700
Cc1ccc(N2CCN(C(=O)C3CCN(c4ccc(S(=O)(=O)C5(C(=O)NO)CCOCC5)cc4)CC3)CC2)c(C)c1 [Example 9]	12.2	> 10000		5600
Cc1cc(C(=O)C2CCN(c3ccc(S(=O)(=O)C4(C(=O)NO)CCOCC4)cc3)CC2)ccc1OC(C)C [Example 376]	6.4	> 10000		2190
C=CCN1CCN(C(=O)C2CCN(c3ccc(S(=O)(=O)C4(C(=O)NO)CCOCC4)cc3)CC2)CC1 [Example 34]	19.3	> 10000		3700
COCCN1CCC(C(=O)NO)(S(=O)(=O)c2ccc(N3CCC(C(=O)c4ccc(CC(C)CO)cc4)CC3)cc2)CC1 (stereo not drawn) [Example 231]	0.5	> 10000		39.4
O=C(c1ccc(CC2CCCC2)cc1)C1CCN(c2ccc(S(=O)(=O)C3(C(=O)NO)CCN(C4CC4)CC3)cc2)CC1 [Example 197]	1.4	> 10000		1720
O=C(c1ccc(CC2CCCCC2)cc1)C1CCN(c2ccc(S(=O)(=O)C3(C(=O)NO)CCOCC3)cc2)CC1 [Example 380]	9.7	> 10000		2290
CCN1CCC(C(=O)NO)(S(=O)(=O)c2ccc(N3CCC(C(=O)c4ccc(CC5CC5)cc4)CC3)cc2)CC1 [Example 254]	1.3	> 10000		132
C#CCN1CCC(C(=O)NO)(S(=O)(=O)c2ccc(N3CCC(C(=O)c4ccc(OC(C)C)c(C)c4)CC3)cc2)CC1 [Example 162]	2.7	> 10000		495
CCN1CCC(C(=O)NO)(S(=O)(=O)c2ccc(N3CCC(C(=O)c4ccc(C)cc4)CC3)cc2)CC1 [Example 208]	0.1	> 10000		19.6
CC(C)Cc1ccc(C(=O)C2CCN(c3ccc(S(=O)(=O)C4(C(=O)NO)CCN(C5CC5)CC4)cc3)CC2)cc1 [Example 189]	< 0.1	> 10000		258
CCCCc1ccc(C(=O)C2CCN(c3ccc(S(=O)(=O)C4(C(=O)NO)CCN(CCOC)CC4)cc3)CC2)s1 [Example 121]	0.1	> 10000		58.8
C#CCN1CCC(C(=O)NO)(S(=O)(=O)c2ccc(N3CCC(C(=O)c4ccc(Cl)cc4)CC3)cc2)CC1 [Example 153]	0.2	> 10000		30.6
CCCc1ccc(C(=O)C2CCN(c3ccc(S(=O)(=O)C4(C(=O)NO)CCN(CCOC)CC4)cc3)CC2)cc1 [Example 120]	0.85	> 10000		126
CCC(C)Cc1ccc(C(=O)C2CCN(c3ccc(S(=O)(=O)C4(C(=O)NO)CCN(CCOC)CC4)cc3)CC2)cc1 (stereo not drawn) [Example 205]	< 0.1	> 10000		412

SMILES	IC50 (Recombinant human MMP-13) [nM]	IC50 (Recombinant human MMP-1) [nM]	IC50 (Recombinant human MMP-2; MMP-2 IC50(nM)) [nM]	IC50 (Recombinant human MMP-2; read-out: MMP-2 IC50) [nM]
O=C(C1CCN(c2ccc(S(=O)(=O)C3(C(=O)NO)CCOCC3)cc2)CC1)N1CCN(CCO)CC1 [Example 10]	40	> 10000		6000
COCCN1CCC(C(=O)NO)(S(=O)(=O)c2ccc(N3CCC(C(=O)c4cccc(Cl)c4)CC3)cc2)CC1 [Example 186]	3.5	> 10000		94.4
Cc1ccc(C2CCN(c3ccc(S(=O)(=O)C4(C(=O)NO)CCN(C5CC5)CC4)cc3)CC2)cc1 [Example 272]	1.3	> 10000		5.9
Cc1cc(C(=O)C2CCN(c3ccc(S(=O)(=O)C4(C(=O)NO)CCN(S(C)(=O)=O)CC4)cc3)CC2)ccc1Cl [Example 219]	4.9	> 10000		258
O=C(c1ccc(CCC2CCCC2)cc1)C1CCN(c2ccc(S(=O)(=O)C3(C(=O)NO)CCN(C4CC4)CC3)cc2)CC1 [Example 199]	11.7	> 10000		3390
C#CCN1CCC(C(=O)NO)(S(=O)(=O)c2ccc(N3CCC(C(=O)c4cccc(C)c4)CC3)cc2)CC1 [Example 154]	2.4	> 10000		176
COCCN1CCC(C(=O)NO)(S(=O)(=O)c2ccc(N3CCC(c4ccc(OC)cc4)CC3)cc2)CC1 [Example 267]	0.4	> 10000		1.7
CCN1CCC(C(=O)NO)(S(=O)(=O)c2ccc(N3CCC(C(=O)c4ccc(Cl)c(C)c4)CC3)cc2)CC1 [Example 221]	3.4	> 10000		301
CCC(C)Cc1ccc(C(=O)C2CCN(c3ccc(S(=O)(=O)C4(C(=O)NO)CCN(C5CC5)CC4)cc3)CC2)cc1 (stereo not drawn) [Example 200]	0.5	> 10000		1400
COc1ccccc1N1CCN(C(=O)C2CCN(c3ccc(S(=O)(=O)C4(C(=O)NO)CCOCC4)cc3)CC2)CC1 [Example 7]	18	> 10000		4500
COCCN1CCC(C(=O)NO)(S(=O)(=O)c2ccc(N3CCC(C(=O)c4ccc(CCCC(C)C)cc4)CC3)cc2)CC1 [Example 226]	< 0.1	> 10000		1020
CCN1CCC(C(=O)NO)(S(=O)(=O)c2ccc(N3CCC(C(=O)c4ccc(OC)cc4)CC3)cc2)CC1 [Example 194]	9.1	> 10000		1230
CCC(C)Cc1ccc(C(=O)C2CCN(c3ccc(S(=O)(=O)C4(C(=O)NO)CCN(CC)CC4)cc3)CC2)cc1 (stereo not drawn) [Example 233]	1.2	> 10000		1050
COc1ccc(C(=O)C2CCN(c3ccc(S(=O)(=O)C4(C(=O)NO)CCN(S(C)(=O)=O)CC4)cc3)CC2)cc1 [Example 206]	1.8	> 10000		199
C=CCN1CCC(C(=O)NO)(S(=O)(=O)c2ccc(N3CCC(C(=O)c4ccc(OC)cc4)CC3)cc2)CC1 [Example 182]	1.1	> 10000		115
O=C(c1ccc2ccccc2c1)C1CCN(c2ccc(S(=O)(=O)C3(C(=O)NO)CCN(CC4CC4)CC3)cc2)CC1 [Example 187]	2.7	> 10000		242
CCC(C)Cc1ccc(C(=O)C2CCN(c3ccc(S(=O)(=O)C4(C(=O)NO)CCOCC4)cc3)CC2)cc1 (stereo not drawn) [Example 382]	0.3	> 10000		1310
